This note sets out measurements from US5151497A, “Histidyl peptide derivatives” (Japan Tobacco Inc., priority 1990, dated 1992).

Common to all, as to assay type: in vivo
In test [1] the test system is Wistar male rats. The test can be described thus: Flexor reflex in spinalized rats. The conditions noted are these: intravenous; for response vs control in vivo at 0.1 mg/kg / response vs control in vivo at 0.3 mg/kg: Rattus norvegicus; for response vs control in vivo at 0.1 mg/kg / response vs control in vivo at 0.3 mg/kg / Reflex amplitude (%) 10 min. after / Reflex amplitude (%) 60 min. after: pre-dose mean = 100%; for Area below the reflex amplitude linking line: covering 60 minutes. As to the method:
Wistar male rats (weighing 450-520 g) were anesthetized with ether, and the cervical part of […] was exposed, into which a tracheal cannula was inserted. The vagus nerves were severed bilaterally at the cervical region. Thereafter, the cervical vertebra C1 segment was transected, and rapidly, artificial ventilation was given with the use of an artificial respirator (Shinano Factory 60 rpm. 4 ml/stroke). The rat was placed on a thermostated apparatus in which water thermostated at 37° C. was circulated and fixed thereto at forelimbs, right hindlimb, tooth and tail. A venous cannula was inserted into the femoral vein in the right hindlimb and two needle electrodes were subcutaneously inserted into the left skin of the toe, and a piece of thread was attached to the limb with the edge of the thread bonded to a force-displacement transducer. Tension of about 5 g was applied to the thread. Through the electrodes, electric stimuli of 50-100 V were applied once per 30 seconds. The flexor reflex was recorded on the polygraph via a force-displacement transducer. After the reaction became constant in about one-hours' lapse for stabilization, the test compound dissolved in saline was intravenously administered. Thereafter, the reaction was recorded for 1 hour. In the data, taking the mean of the three reactions just before administration of the test compound for 100%, the reflex amplitude at 1-, 3-, 5-, 8-, 10-, 15-, 20-, 30-, 40-, 50- and 60-minutes' lapse after administration of the test compound were calculated. In Table 3, there are shown calculated area below the straight line linking the obtained reflex amplitude at the respective above-mentioned time covering 60 […], and the reflex amplitude at 10- and 60-minutes' lapse after administration (Table 3).

Test [2] has as its system ICR male mice. The test can be described thus: Anti-reserpine action (antagonistic action against hypothermia). The conditions noted are these: SC, mice given reserpine 5 mg/kg s.c. 3 or 3.5 hours before, from regression line; for ED (1 degC rise in body temperature): Mus musculus, 2 h, read-out: Concentration of test compound necessary for raising body temperature by 1° C. on the average for 120 minutes. As to the method: ICR male mice weighing 35-40 g were subcutaneously administered with reserpine at the dose of 5 mg/kg. About 2 hours later, each of the mice was held by a mouse-holder, and a body temperature sensor was intrarectally inserted. Thereafter, the body temperature was automatically measured every 10 minutes. The test compound dissolved in saline was subcutaneously administered 3 or 3.5 hours after administration of reserpine. After the administration of the test compound, the body temperature was measured every 10 minutes over the period of 120 minutes. The area below the body temperature line during the period was calculated, from which the regression line was estimated based upon least square method, and estimated was the amount of the test compound necessary for raising the body temperature by 1° C. on the average for 120 minutes from that just before the administration of the test compound (Table 1).

In test [3] the test system is ICR male mice. The test can be described thus: Anti-chlorpromazine action (locomotor stimulant action). The conditions noted are these: SC, mice given chlorpromazine.HCl 5 mg/kg s.c. one hour before, from regression line; for ED (3000 locomotor counts): Mus musculus, 2 h, read-out: Concentration of test compound necessary for inducing 3000 count of automatism quantity in 2 hours. As to the method: ICR male mice weighing 35-40 g (four animals per group) were subcutaneously administered with chlorpromazine.HCl at the dose of 5 mg/kg and immediately set in the automatic locomotor-measuring apparatus (AUTOMEX). One hour later, the test compound dissolved in saline was subcutaneously administered, and the locomotor activity was measured every 15 minutes for 120 minutes. The total locomotor activity during the period of 120 minutes was calculated and the regression line was estimated based on the method of least squares, from which the amount of the test compound necessary for inducing 3000 locomotor-count was estimated (Table 2).

[4] abbreviates: 10 min, 0.1 mg/kg, read-out: Reflex amplitude (%) 10 min. after.
Where [5] appears, read: 1 h, 0.1 mg/kg, read-out: Reflex amplitude (%) 60 min. after.
Where [6] appears, read: 1 h, 0.3 mg/kg (footnote *), read-out: Reflex amplitude (%) 60 min. after.
Where [7] appears, read: 10 min, 0.3 mg/kg (footnote *), read-out: Reflex amplitude (%) 10 min. after.

Read-outs that look alike come from different tables or passages of the source.

On to `CSCC[C@H](NC(=O)[C@H]1NC(=O)C[C@H]1C)C(=O)N1CCC[C@H]1C(N)=O` [Compound 28A, N-(cis-3-Methylpyroglutamyl)-L-methionyl-L-prolinamide], for which the response vs control in vivo at 0.1 mg/kg in test [1] (setting [4]) is 125%; in test [1] (setting [5]), 195%. Further, the “Area below the reflex amplitude linking line” value in test [1] (0.1 mg/kg) is on record as 9188.

On to `CC1(C)CC(=O)CC1C(=O)N[C@@H](Cc1c[nH]cn1)C(=O)N1CCC[C@H]1C(N)=O` (stereo partly drawn) [Compound 21, N^α -(2,2-Dimethyl-4-oxocyclopentanecarbonyl)-L-histidyl-L-prolinamide], for which the response vs control in vivo at 0.1 mg/kg in test [1] (setting [5]) amounted to 145%. For the same molecule, in test [1] (setting [6]), the response vs control in vivo at 0.3 mg/kg stood at 274%.

As for `CCC[C@H](NC(=O)[C@H]1NC(=O)C[C@H]1C)C(=O)N1CCC[C@H]1C(N)=O` [Compound 29A, N-(cis-3-Methylpyroglutamyl)-L-norvalyl-L-prolinamide], the figures for the response vs control in vivo at 0.3 mg/kg in test [1] (setting [7]) and in test [1] (setting [6]) were 124% and 121%, respectively. The “Area below the reflex amplitude linking line” value in test [1] (0.3 mg/kg (footnote *)) stood at 7063.

Consider `C[C@H]1CC(=O)C[C@H]1C(=O)N[C@@H](Cc1c[nH]cn1)C(=O)N1CCC[C@H]1C(N)=O` (mixture of isomers) [Compound 19, N^α -(cis-2-Methyl-4-oxocyclopentanecarbonyl)-L-histidyl-L-prolinamide], for which the response vs control in vivo at 0.1 mg/kg in test [1] (setting [5]) was determined as 246%. Further, the response vs control in vivo at 0.3 mg/kg in test [1] (setting [6]) turned out to be 340%.

As to `NC(=O)[C@@H]1CCCN1C(=O)[C@H](Cc1c[nH]cn1)NC(=O)[C@H]1NC(=O)C[C@H]1c1ccccc1` [Compound 11, N^α -(cis-3-Phenylpyroglutamyl)-L-histidyl-L-prolinamide], the response vs control in vivo at 0.1 mg/kg in test [1] (setting [4]) was 140%; in test [1] (setting [5]), 241%. Further, the “Area below the reflex amplitude linking line” value in test [1] (0.1 mg/kg) amounted to 11321. In addition, in test [2], the ED (1 degC rise in body temperature) is 0.28 mg/kg. In addition, the ED (3000 locomotor counts) in test [3] was 1.89 mg/kg.

Turning to `NC(=O)[C@@H]1CCCN1C(=O)[C@H](Cc1ccccc1)NC(=O)[C@@H]1CCC(=O)C1` [Compound 37, N-[(1R)-3-oxocyclopentanecarbonyl]-L-phenylalanyl-L-prolinamide], in test [1] (0.3 mg/kg (footnote *)), the “Area below the reflex amplitude linking line” value was 5868.

Turning to `C[C@@H]1CC(=O)N[C@@H]1C(=O)N[C@@H](Cc1cnc[nH]1)C(=O)N1CSC[C@H]1C(N)=O` (relative stereo) [Compound 3, 3-[N^α -(cis-3-Methylpyroglutamyl)-L-histidyl]-L-thiazolidine-4-carboxamide], in test [1] (0.1 mg/kg), the “Area below the reflex amplitude linking line” value stood at 13811, the “Reflex amplitude (%) 10 min. after” value is reported as 190.5% and the “Reflex amplitude (%) 60 min. after” value was found to be 277.6%. In test [2], the “Concentration of test compound necessary for raising body temperature by 1° C. on the average for 120 minutes” value (from here on “Concentration … for 120 minutes”) stood at 0.20 mg/kg. Also, the “Concentration of test compound necessary for inducing 3000 count of automatism quantity in 2 hours” value (“Concentration … in 2 hours” below) in test [3] was 0.47 mg/kg.

As for `C[C@@H]1CC(=O)N[C@@H]1C(=O)N[C@@H](Cc1c[nH]cn1)C(=O)N1CCC[C@H]1C(N)=O` [Compound 1, N^α -(cis-3-Methylpyroglutamyl)-L-histidyl-L-prolinamide], the response vs control in vivo at 0.1 mg/kg in test [1] (setting [5]) came to 298%.

In the case of `NC(=O)[C@@H]1CCCN1C(=O)[C@H](Cc1c[nH]cn1)NC(=O)[C@@H]1CCC(=O)N1` [TRH, L-pyroglutamyl-L-histidyl-L-prolinamide, reference compound], the figures for the response vs control in vivo at 0.1 mg/kg in test [1] (setting [4]) and in test [1] (setting [5]) were 118% and 79.3%, respectively. In addition, the “Area below the reflex amplitude linking line” value in test [1] (0.1 mg/kg) came out at 6418. In test [2], the ED (1 degC rise in body temperature) came to 2.52 mg/kg. For the same molecule, the ED (3000 locomotor counts) in test [3] worked out at 6.82 mg/kg.

For the molecule `CCC[C@H](NC(=O)[C@H]1NC(=O)CC1(C)C)C(=O)N1CCC[C@H]1C(N)=O` [Compound 33A, N-(3,3-Dimethylpyroglutamyl)-L-norvalyl-L-prolinamide], the values for the response vs control in vivo at 0.3 mg/kg in test [1] (setting [7]) and in test [1] (setting [6]) were 119% and 120%, respectively. For the same molecule, the “Area below the reflex amplitude linking line” value in test [1] (0.3 mg/kg (footnote *)) was 7172.

On to `NC(=O)C1CCCN1C(=O)C(Cc1cnc[nH]1)NC(=O)C1CCC(=O)O1` (stereo not shown) [DN1417, reference compound], for which, in test [1] (0.3 mg/kg (footnote *)), the “Area below the reflex amplitude linking line” value was 8152, the “Reflex amplitude (%) 10 min. after” value is listed as 113.7% and the “Reflex amplitude (%) 60 min. after” value came to 162.8%. The “Concentration … for 120 minutes” value in test [2] worked out at 2.06 mg/kg. The “Concentration … in 2 hours” value in test [3] was determined as 4.34 mg/kg.

With `CCCC[C@H](NC(=O)[C@H]1NC(=O)C[C@H]1C)C(=O)N1CCC[C@H]1C(N)=O` [Compound 31A, N-(cis-3-Methylpyroglutamyl)-L-norleucyl-L-prolinamide], the figures for the response vs control in vivo at 0.1 mg/kg in test [1] (setting [4]) and in test [1] (setting [5]) were 130% and 129%, respectively. Further, in test [1] (0.1 mg/kg), the “Area below the reflex amplitude linking line” value was 8126.

Take `C[C@@H]1CC(=O)C[C@H]1C(=O)N[C@@H](Cc1c[nH]cn1)C(=O)N1CCC[C@H]1C(N)=O` (mixture of isomers) [Compound 20, N^α -(trans-2-Methyl-4-oxocyclopentanecarbonyl)-L-histidyl-L-prolinamide]: the response vs control in vivo at 0.1 mg/kg in test [1] (setting [5]) stood at 107%. In test [1] (setting [6]), the response vs control in vivo at 0.3 mg/kg was 223%.

`CC(C)C[C@H](NC(=O)[C@H]1NC(=O)C[C@H]1C)C(=O)N1CCC[C@H]1C(N)=O` [Compound 27A, N-(cis-3-Methylpyroglutamyl)-L-leucyl-L-prolinamide]: the response vs control in vivo at 0.1 mg/kg in test [1] (setting [4]) came out at 126%; in test [1] (setting [5]) it was 156%. Also, the “Area below the reflex amplitude linking line” value in test [1] (0.1 mg/kg) is 8769.

`NC(=O)[C@@H]1CCCN1C(=O)[C@H](Cc1c[nH]cn1)NC(=O)C1CCC(=O)C1` (stereo partly drawn) [Compound 13, N^α -(3-Oxocyclopentanecarbonyl)-L-histidyl-L-prolinamide]: in test [1] (setting [5]), the response vs control in vivo at 0.1 mg/kg was 167%.

Take `NC(=O)[C@@H]1CCCN1C(=O)[C@H](Cc1c[nH]cn1)NC(=O)[C@@H]1CCC(=O)C1` [Compound 16, N^α -[(1R)-3-Oxocyclopentanecarbonyl]-L-histidyl-L-prolinamide]: in test [1] (setting [5]), the response vs control in vivo at 0.1 mg/kg stood at 252%.

`C[C@H]1CC(=O)N[C@@H]1C(=O)N[C@@H](Cc1c[nH]cn1)C(=O)N1CSC[C@H]1C(N)=O` (relative stereo) [Compound 4, 3-[N^α -(trans-3-Methylpyroglutamyl)-L-histidyl]-L-thiazolidine-4-carboxamide]: in test [1] (0.1 mg/kg), the “Area below the reflex amplitude linking line” value is given as 9404, the “Reflex amplitude (%) 10 min. after” value amounted to 142.8% and the “Reflex amplitude (%) 60 min. after” value turned out to be 163.9%. In test [2], the “Concentration … for 120 minutes” value is recorded as 0.34 mg/kg. The “Concentration … in 2 hours” value in test [3] was 0.63 mg/kg.

Consider `C[C@@H]1CC(=O)O[C@@H]1C(=O)N[C@@H](Cc1c[nH]cn1)C(=O)N1CCC[C@H]1C(N)=O` [Compound 5, N^α -[(2S,3R)-Tetrahydro-3-methyl-5-oxo-2-furancarbonyl]-L-histidyl-L-prolinamide], for which the response vs control in vivo at 0.1 mg/kg in test [1] (setting [5]) is 168%.

Regarding `C[C@H]1CC(=O)N[C@@H]1C(=O)N[C@@H](Cc1c[nH]cn1)C(=O)N1CCC[C@H]1C(N)=O` [Compound 2, N^α -(trans-3-Methylpyroglutamyl)-L-histidyl-L-prolinamide], the response vs control in vivo at 0.1 mg/kg in test [1] (setting [5]) is 107%.
